Laboratory results reported in patent US11219663B2, “Composition containing cyclic dipeptide and sweetening agent” (SUNTORY HOLDINGS LIMITED, priority 2015, dated 2022).
Where a SMILES comes first, the peptide text is derived from it.

System: NCI-H716 cells
Experiment: Active GLP-1 secretion amount of NCI-H716 cells cultured for one hour with the sample (ELISA)
Format: cell-based, Human
Settings: for Amount of active GLP-1, relative value (control regarded as 100), average value / Amount of Active GLP-1 (relative amount to control as 100), average value: 1 h
Excerpt: As cyclic dipeptides: cyclo(glycyl-tyrosine) [Cyclo(Gly-Tyr)] (CGY) and cyclo(leucyl-phenylalanine) [Cyclo(Leu-Phe)] (CLF), and chemical synthesized preparations were used. Poly-L-Lysine 96-well plates were obtained from Becton Dickinson (BD). PBS (+), an antibiotic substance, Dulbecco's Modified Eagle's Medium (DMEM) and glucose used herein were obtained from Nacalai Tesque Inc.; sucralose, acesulfame potassium and aspartame from Wako Pure Chemical Industries Ltd.; active GLP-1 ELISA kit from Merck Millipore, Fetal bovine serum (FBS) from Sigma; and Sitagliptin phosphate from SantaCruz Biotechnology. Human intestinal cell strain, NCI-H716 cells used herein were provided by ATCC.
NCI-H716 cells, which were suspended in DMEM culture medium (containing 10% FBS, 2 mM glutamine, 1% antibiotic substance), were seeded in Poly-L-Lysine 96-well plates in an amount of 100 μL for each so as to contain 0.5×10^5 cells/well and cultured in a CO2 incubator (manufactured by ESPEC CORP.) for 48 hours.
Sweetening agent solutions were prepared each by adding a sweetening agent to PBS (+). In the case of glucose, a concentration was set at 3%, sucralose at 0.6%, acesulfame potassium at 0.3%, and aspartame at 0.3%. A cyclic dipeptide was dissolved in DMSO and then added to each of sweetening agent solutions so as to obtain final concentrations shown in Table 1 and Table 2. Note that, all cell addition solutions were prepared such that DMSO (0.1%) and a 10 μM Sitagliptin phosphate were contained.
After the cells were washed once with PBS (+), a reaction solution was added to the cells. One hour later, the solution added was recovered. Thereafter, the amount of active GLP-1 in the solution recovered was measured by using the ELISA kit. Analysis was carried out using relative values to the amount of active GLP-1 (regarded as 100) in a (sample) group to which neither sweetening agent nor cyclic dipeptide were added.
NCI-H716 cells, which were suspended in DMEM culture medium (containing 10% FBS, 2 mM glutamine, 1% antibiotic substance) were seeded in Poly-L-Lysine 96-well plates in an amount of 100 μL for each so as to contain 0.5×10^5 cells/well and cultured in an CO2 incubator (manufactured by ESPEC CORP.) for 48 hours. After the cells were washed with PBS (+), a PBS (+) solution already containing 10 μM Sitagliptin phosphate was controlled such that the final concentration of stevioside or RebA was 0.01%, and the final concentration of Cyclo(Leu-Phe) was 0.02 μg/mL or 2 μg/mL. The PBS (+) solution (100 μL) was individually added to the NCI-H716 cells. One hour later, the solution added was recovered and the amount of active GLP-1 in the solution was measured by the ELISA kit. Analysis was carried out based on relative values to the amount of active GLP-1 (regarded as 100) in a (sample) group to which neither a steviol glycoside not Cyclo(Leu-Phe) were added
The experiment was carried out in accordance with Example 2. A PBS (+) solution already containing 10 μM Sitagliptin phosphate was controlled such that the final concentration of RebD was 0.01%, and the final concentration of Cyclo(Gly-Tyr) was 0.01 μg/mL or 1 μg/mL. The PBS (+) solution (100 μL) was individually added to the NCI-H716 cells.
NCI-H716 cells, which were suspended in DMEM culture medium (containing 10% FBS, 2 mM glutamine, 1% antibiotic substance), were seeded in Poly-L-Lysine 96-well plates in an amount of 100 μL for each so as to add 0.5×10^5 cells/well and cultured in an CO2 incubator (manufactured by ESPEC CORP.) for 48 hours. After the cells were washed with PBS (+), a PBS (+) solution already containing 10 μM Sitagliptin phosphate was controlled such that the final concentration of stevioside, RebA or RebB was 0.001, 0.01 or 0.1%. The PBS (+) solution (100 μL) controlled such that the final concentration of RebC or RebD was 0.001 or 0.01% was added to the cells.

[1] = Example 4, steviol glycoside alone, 0.001 to 0.1% (RebC, RebD 0.001 or 0.01%)
[2] = Table 3, steviol glycoside 0.01% alone
[3] = Table 4, steviol glycoside 0.01% alone
[4] = Table 5, final concentration 0.001%
[5] = Table 5, final concentration 0.01%
[6] = Table 5, final concentration 0.1%
[7] = steviol glycoside alone at a concentration of 0.01%

CC1=CC(=O)NS(=O)(=O)O1 [Acesulfame K, acesulfame potassium]
Amount of active GLP-1, relative value (control regarded as 100), average value (Table 1, acesulfame K 0.3% alone): 125 | Amount of active GLP-1, relative value (control regarded as 100), average value (Table 2, acesulfame K 0.3% alone): 145

COC(=O)[C@H](Cc1ccccc1)NC(=O)[C@@H](N)CC(=O)O [Aspartame, aspartame] (H-Asp-Phe-OMe)
Amount of active GLP-1, relative value (control regarded as 100), average value (Table 1, aspartame 0.3% alone): 112 | Amount of active GLP-1, relative value (control regarded as 100), average value (Table 2, aspartame 0.3% alone): 129

C=C1C[C@@]23CC[C@H]4[C@@](C)(CCC[C@@]4(C)C(=O)O[C@@H]4O[C@H](CO)[C@@H](O)[C@H](O)[C@H]4O)[C@@H]2CC[C@]1(O[C@@H]1O[C@H](CO)[C@@H](O)[C@H](O[C@@H]2O[C@H](CO)[C@@H](O)[C@H](O)[C@H]2O)[C@H]1O[C@@H]1O[C@H](CO)[C@@H](O)[C@H](O)[C@H]1O)C3 [RebA, rebaudioside A]
GLP-1 secretion-accelerating action (in words) [1]: GLP-1 secretion-accelerating action can be obtained | Amount of Active GLP-1 (relative amount to control as 100), average value [2]: 72.6 | Amount of Active GLP-1 (relative amount to control as 100), average value [3]: 72.6 | Amount of Active GLP-1 (relative amount to control as 100), average value [4]: 92.8 | Amount of Active GLP-1 (relative amount to control as 100), average value [5]: 129.3 | Amount of Active GLP-1 (relative amount to control as 100), average value [6]: 150.9 | GLP-1 secretion-accelerating action (in words) [7]: not accelerated

C=C1C[C@@]23CC[C@H]4[C@@](C)(CCC[C@@]4(C)C(=O)O[C@@H]4O[C@H](CO)[C@@H](O)[C@H](O)[C@H]4O[C@@H]4O[C@H](CO)[C@@H](O)[C@H](O)[C@H]4O)[C@@H]2CC[C@]1(O[C@@H]1O[C@H](CO)[C@@H](O)[C@H](O[C@@H]2O[C@H](CO)[C@@H](O)[C@H](O)[C@H]2O)[C@H]1O[C@@H]1O[C@H](CO)[C@@H](O)[C@H](O)[C@H]1O)C3 [RebD, rebaudioside D]
GLP-1 secretion-accelerating action (in words) [1]: GLP-1 secretion-accelerating action can be obtained | Amount of Active GLP-1 (relative amount to control as 100), average value [4]: 63.1 | Amount of Active GLP-1 (relative amount to control as 100), average value [5]: 170.0 | GLP-1 secretion-accelerating action (in words) [7]: not accelerated

C=C1C[C@@]23CC[C@H]4[C@@](C)(CCC[C@@]4(C)C(=O)O[C@@H]4O[C@H](CO)[C@@H](O)[C@H](O)[C@H]4O)[C@@H]2CC[C@]1(O[C@@H]1O[C@H](CO)[C@@H](O)[C@H](O)[C@H]1O[C@@H]1O[C@H](CO)[C@@H](O)[C@H](O)[C@H]1O)C3 [Stevioside, stevioside]
GLP-1 secretion-accelerating action (in words) [1]: GLP-1 secretion-accelerating action can be obtained | Amount of Active GLP-1 (relative amount to control as 100), average value [2]: 62.7 | Amount of Active GLP-1 (relative amount to control as 100), average value [3]: 62.7 | Amount of Active GLP-1 (relative amount to control as 100), average value [4]: 104.9 | Amount of Active GLP-1 (relative amount to control as 100), average value [5]: 91.3 | Amount of Active GLP-1 (relative amount to control as 100), average value [6]: 160.9 | GLP-1 secretion-accelerating action (in words) [7]: not accelerated

OC[C@H]1O[C@H](O[C@]2(CCl)O[C@H](CCl)[C@@H](O)[C@@H]2O)[C@H](O)[C@@H](O)[C@H]1Cl [Sucralose, sucralose]
Amount of active GLP-1, relative value (control regarded as 100), average value (Table 1, sucralose 0.6% alone): 206 | Amount of active GLP-1, relative value (control regarded as 100), average value (Table 2, sucralose 0.6% alone): 233

cyclo(glycyl-tyrosine) [Cyclo(Gly-Tyr)]
Amount of Active GLP-1 (relative amount to control as 100), average value (Table 4, Cyclo(Gly-Tyr) 0.01 μg/mL alone): 65.1

cyclo(leucyl-phenylalanine) [Cyclo(Leu-Phe)]
Amount of Active GLP-1 (relative amount to control as 100), average value (Table 3, Cyclo(Leu-Phe) 0.02 μg/mL alone): 65.1 | Amount of Active GLP-1 (relative amount to control as 100), average value (Table 3, Cyclo(Leu-Phe) 2 μg/mL alone): 59.9 | Amount of Active GLP-1 (relative amount to control as 100), average value (Table 4, head prints Cyclo(Leu-Phe) 1 μg/mL alone): 59.9

rebaudioside B [RebB]
GLP-1 secretion-accelerating action (in words) [1]: GLP-1 secretion-accelerating action can be obtained | Amount of Active GLP-1 (relative amount to control as 100), average value [4]: 82.0 | Amount of Active GLP-1 (relative amount to control as 100), average value [5]: 70.5 | Amount of Active GLP-1 (relative amount to control as 100), average value [6]: 151.2

rebaudioside C [RebC]
GLP-1 secretion-accelerating action (in words) [1]: GLP-1 secretion-accelerating action was not observed | Amount of Active GLP-1 (relative amount to control as 100), average value [4]: 52.8 | Amount of Active GLP-1 (relative amount to control as 100), average value [5]: 55.0
